Measurements: patent US6630477B1, “Therapeutic nucleoside compound” (SmithKline Beecham Corporation, priority 1999, dated 2003)

What was measured:
Hepatitis B virus = experiment: Hepatitis B Virus Activity (method of Jansen et al. 1993); type: cell-based; details: n=2, read-out: IC50 against Hepatitis B virus
Method: (§1) The activity of compounds against Hepatitis B Virus was assessed as described in Jansen, R. et al., Antimicrobial Agents and Chemotherapy, Vol. 37, No. 3, pp. 441-447, 1993.

[1] = Cytotoxicity (reported with the Hepatitis B virus activity test); type: cell-based
Method: as §1

## Nc1ncnc2c1ncn2[C@@H]1C=C[C@H](CO)C1 [(+)-(1R,4S)-4-(6-Amino-9H-purin-9-yl)-2-cyclopentene-1-methanol]
Hepatitis B virus
  IC50: 1000 nM
other
  melting point: 195 to 200 °C
[1]
  Cytotoxicity: > 200 µM
